Drawing on patent US8008298B2, “Pyrrolopyrazine kinase inhibitors” (Roche Palo Alto, priority 2008, dated 2011), this text covers melting point for 34 compounds.

Consider `CNC(=O)C1(C)CCN(c2cccc(-c3cnc4[nH]cc(C(=O)C(C)(C)C)c4n3)c2)C1` (stereo not shown) [Example 210, 1-{3-[7-(2,2-Dimethyl-propionyl)-5H-pyrrolo[2,3-b]pyrazin-2-yl]-phenyl}-3-methyl-pyrrolidine-3-carboxylic acid methylamide], for which the melting point (usually the temperature, or range, at which the solid turns liquid) is 252 to 254 °C.
Next, `CC1(N)CCN(c2cccc(-c3cnc4[nH]cc(C(=O)C(C)(C)C)c4n3)c2)C1` (stereo not shown) [Example 212, 1-{2-[3-(3-Amino-3-methyl-pyrrolidin-1-yl)-phenyl]-5H-pyrrolo[2,3-b]pyrazin-7-yl}-2,2-dimethyl-propan-1-one]: 216 to 218 °C; `COc1cc(-c2cnc3[nH]cc(C(=O)C4(C)CCC(=O)C4)c3n2)cc(OC)c1OC` (stereo not shown) [Example 214, 3-Methyl-3-[2-(3,4,5-trimethoxy-phenyl)-5H-pyrrolo[2,3-b]pyrazine-7-carbonyl]-cyclopentanone]: 238 to 240 °C.
To `CC1(C(=O)c2c[nH]c3ncc(-c4cccc(N5CCCC5)c4)nc23)CC[C@@H]2CCC[C@@H]21` (stereo partly drawn) [Example 215, ((3aS,6aS)-1-Methyl-octahydro-pentalen-1-yl)-[2-(3-pyrrolidin-1-yl-phenyl)-5H-pyrrolo[2,3-b]pyrazin-7-yl]-methanone] belongs 200 to 202 °C; to `CC(C)(C)C(=O)c1c[nH]c2ncc(-c3cccc(N)c3)nc12` [Example 226, 1-[2-(3-Amino-phenyl)-5H-pyrrolo[2,3-b]pyrazin-7-yl]-2,2-dimethyl-propan-1-one], 239 to 241 °C; to `CCNc1cccc(-c2cnc3[nH]cc(C(=O)C(C)(C)C)c3n2)c1` [Example 227, 1-[2-(3-Ethylamino-phenyl)-5H-pyrrolo[2,3-b]pyrazin-7-yl]-2,2-dimethyl-propan-1-one], 189 to 191 °C.
Next, `CC(=O)Nc1cccc(-c2cnc3[nH]cc(C(=O)C(C)(C)C)c3n2)c1` [Example 228, N-{3-[7-(2,2-Dimethyl-propionyl)-5H-pyrrolo[2,3-b]pyrazin-2-yl]-phenyl}-acetamide]: 249 to 250 °C; `CC(C)(C)C(=O)c1c[nH]c2ncc(-c3cccc(N4CCS(=O)(=O)CC4)c3)nc12` [Example 230, 1-{2-[3-(1,1-Dioxo-1lambda*6*-thiomorpholin-4-yl)-phenyl]-5H-pyrrolo[2,3-b]pyrazin-7-yl}-2,2-dimethyl-propan-1-one]: 279 to 280 °C.
Consider `CC(C)(C)C(=O)c1c[nH]c2ncc(-c3cccc(-n4cccc4)c3)nc12` [Example 232, 2,2-Dimethyl-1-[2-(3-pyrrol-1-yl-phenyl)-5H-pyrrolo[2,3-b]pyrazin-7-yl]-propan-1-one], for which the melting point fell in the range of 220 to 222 °C.
`CC(C)(C)C(=O)c1c[nH]c2ncc(-c3cccc(NS(=O)(=O)c4ccccc4)c3)nc12` [Example 234, N-{3-[7-(2,2-Dimethyl-propionyl)-5H-pyrrolo[2,3-b]pyrazin-2-yl]-phenyl}-benzenesulfonamide]: the melting point lay within 217 to 219 °C.
To `CC(C)(C)C(=O)c1c[nH]c2ncc(-c3cccc(NS(=O)(=O)c4ccc(N)cc4)c3)nc12` [Example 235, 4-Amino-N-{3-[7-(2,2-dimethyl-propionyl)-5H-pyrrolo[2,3-b]pyrazin-2-yl]-phenyl}-benzenesulfonamide] belongs 285 to 286 °C; to `CC(C)(C)C(=O)c1c[nH]c2ncc(-c3cccc(NC4=NCCN4)c3)nc12` [Example 236, 1-{2-[3-(4,5-Dihydro-1H-imidazol-2-ylamino)-phenyl]-5H-pyrrolo[2,3-b]pyrazin-7-yl}-2,2-dimethyl-propan-1-one], 228 to 230 °C; to `CC(C)(C)C(=O)c1c[nH]c2ncc(-c3cccc(C#N)c3)nc12` [Example 237, 3-[7-(2,2-Dimethyl-propionyl)-5H-pyrrolo[2,3-b]pyrazin-2-yl]-benzonitrile], 248 to 249 °C.
Next, `COc1cc(-c2cnc3[nH]cc(C(=O)N4CCCC4)c3n2)cc(OC)c1OC` [Example 240, Pyrrolidin-1-yl-[2-(3,4,5-trimethoxy-phenyl)-5H-pyrrolo[2,3-b]pyrazin-7-yl]-methanone]: 210 to 212 °C; `CCOc1cc(-c2cnc3[nH]cc(C(=O)C(C)(C)C)c3n2)cc(N2CCCC2)c1` [Example 262, 1-[2-(3-Ethoxy-5-pyrrolidin-1-yl-phenyl)-5H-pyrrolo[2,3-b]pyrazin-7-yl]-2,2-dimethyl-propan-1-one]: 236 to 237 °C.
The compound `CC(C)(C)C(=O)c1c[nH]c2ncc(-c3cc(OCCS(C)(=O)=O)cc(N4CCCC4)c3)nc12` [Example 267, 1-{2-[3-(2-Methanesulfonyl-ethoxy)-5-pyrrolidin-1-yl-phenyl]-5H-pyrrolo[2,3-b]pyrazin-7-yl}-2,2-dimethyl-propan-1-one] showed a melting point of 230 to 232 °C.
Compound `COc1cc(-c2cnc3[nH]cc(C(=O)C(C)(C)C)c3n2)cc(N2CC[S+]([O-])CC2)c1` [Example 269, 1-{2-[3-Methoxy-5-(1-oxo-1lambda*4*-thiomorpholin-4-yl)-phenyl]-5H-pyrrolo[2,3-b]pyrazin-7-yl}-2,2-dimethyl-propan-1-one] registered a melting point of 259 to 260 °C.
To `Cn1nccc1-c1ccc(-c2cnc3[nH]cc(C(=O)C(C)(C)C)c3n2)cc1` [Example 281, 2,2-Dimethyl-1-{2-[4-(2-methyl-2H-pyrazol-3-yl)-phenyl]-5H-pyrrolo[2,3-b]pyrazin-7-yl}-propan-1-one] belongs 257 to 258 °C; to `CC(C)(C)C(=O)c1c[nH]c2ncc(-c3cccc(N4CC5(COC5)C4)c3)nc12` [Example 282, 2,2-dimethyl-1-{2-[3-(2-oxa-6-aza-spiro[3.3]hept-6-yl)-phenyl]-5H-pyrrolo[2,3-b]pyrazin-7-yl}-propan-1-one], 260 to 262 °C; to `CC1(C(=O)c2c[nH]c3ncc(-c4cccc(N5CCCC5=O)c4)nc23)CCCCC1` [Example 283, 1-{3-[7-(1-methyl-cyclohexanecarbonyl)-5H-pyrrolo[2,3-b]pyrazin-2-yl]-phenyl}-pyrrolidin-2-one], 215 to 217 °C.
To `COc1ccc(F)cc1-c1cnc2[nH]cc(C(=O)CC(C)C)c2n1` [Example I-5, 1-[2-(5-Fluoro-2-methoxy-phenyl)-5H-pyrrolo[2,3-b]pyrazin-7-yl]-3-methyl-butan-1-one] belongs 186 to 187 °C; to `CC(C)CC(=O)c1c[nH]c2ncc(-c3cccc(N4CCCC4)c3)nc12` [Example I-6, 3-Methyl-1-[2-(3-pyrrolidin-1-yl-phenyl)-5H-pyrrolo[2,3-b]pyrazin-7-yl]-butan-1-one], 260 to 261 °C; to `CNC(=O)c1cccc(-c2cnc3[nH]cc(C(=O)CC(C)C)c3n2)c1` [Example I-9, N-Methyl-3-[7-(3-methyl-butyryl)-5H-pyrrolo[2,3-b]pyrazin-2-yl]-benzamide], 243 to 244 °C.
Next, `CC(C)(C)C(=O)c1c[nH]c2ncc(-c3ccc(OCCN4CCOCC4)cc3)nc12` [Example I-40, 2,2-Dimethyl-1-{2-[4-(2-morpholin-4-yl-ethoxy)-phenyl]-5H-pyrrolo[2,3-b]pyrazin-7-yl}-propan-1-one]: 198.4 to 202.7 °C.
`CC(C)(C)C(=O)c1c[nH]c2ncc(-c3cccc(OCCN4CCOCC4)c3)nc12` [Example I-41, 2,2-Dimethyl-1-{2-[3-(2-morpholin-4-yl-ethoxy)-phenyl]-5H-pyrrolo[2,3-b]pyrazin-7-yl}-propan-1-one] showed a melting point of 152.9 to 154.7 °C.
As to `CC(C)(C)OC(=O)N1CCN(c2cccc(-c3cnc4[nH]cc(C(=O)C(C)(C)C)c4n3)c2)CC1` [Example I-44, 4-{3-[7-(2,2-Dimethyl-propionyl)-5H-pyrrolo[2,3-b]pyrazin-2-yl]-phenyl}-piperazine-1-carboxylic acid tert-butyl ester], the melting point is 215.2 to 215.8 °C.
To `CC(C)(C)C(=O)c1c[nH]c2ncc(-c3ccc(N4CCNCC4)cc3)nc12` [Example I-45, 2,2-Dimethyl-1-[2-(4-piperazin-1-yl-phenyl)-5H-pyrrolo[2,3-b]pyrazin-7-yl]-propan-1-one] belongs 234 to 246 °C; to `CC(C)(C)C(=O)c1c[nH]c2ncc(-c3cccc(N4CCNCC4)c3)nc12` [Example I-46, 2,2-Dimethyl-1-[2-(3-piperazin-1-yl-phenyl)-5H-pyrrolo[2,3-b]pyrazin-7-yl]-propan-1-one], 216 to 222 °C; to `CC(=O)N1CCN(c2ccc(-c3cnc4[nH]cc(C(=O)C(C)(C)C)c4n3)cc2)CC1` [Example I-99, 1-{2-[4-(4-Acetyl-piperazin-1-yl)-phenyl]-5H-pyrrolo[2,3-b]pyrazin-7-yl}-2,2-dimethyl-propan-1-one], 266 to 267 °C.
To `CC(=O)N1CCN(c2cccc(-c3cnc4[nH]cc(C(=O)C(C)(C)C)c4n3)c2)CC1` [Example I-100, 1-{2-[3-(4-Acetyl-piperazin-1-yl)-phenyl]-5H-pyrrolo[2,3-b]pyrazin-7-yl}-2,2-dimethyl-propan-1-one] belongs 238 to 239 °C; to `CC(C)(C)C(=O)c1c[nH]c2ncc(-c3cccc(-n4cccn4)c3)nc12` [Example I-115, 2,2-Dimethyl-1-[2-(3-pyrazol-1-yl-phenyl)-5H-pyrrolo[2,3-b]pyrazin-7-yl]-propan-1-one], 219.3 to 221.1 °C.
Next, `CC(C)(C)C(=O)c1c[nH]c2ncc(-c3cccc(-c4ccn[nH]4)c3)nc12` [Example I-126, 2,2-Dimethyl-1-{2-[3-(2H-pyrazol-3-yl)-phenyl]-5H-pyrrolo[2,3-b]pyrazin-7-yl}-propan-1-one]: 277 to 278 °C; `CNC(=O)c1cccc(-c2cnc3[nH]cc(C(=O)C(C)(C)C)c3n2)c1` [Example I-129, 3-[7-(2,2-Dimethyl-propionyl)-5H-pyrrolo[2,3-b]pyrazin-2-yl]-N-methyl-benzamide]: 257 to 258 °C.
`COCc1cccc(-c2cnc3[nH]cc(C(=O)C(C)(C)C)c3n2)c1` [Example I-130, 1-[2-(3-Methoxymethyl-phenyl)-5H-pyrrolo[2,3-b]pyrazin-7-yl]-2,2-dimethyl-propan-1-one] showed a melting point of 143 to 144 °C.
